Assay results as given in patent US20240262822A1, “WDR5 INHIBITORS AND MODULATORS” (Vanderbilt University, priority 2021, published 2024).
Read-outs that look alike come from different tables or passages of the source.

Tests used:
WDR5 = molecular target: T1, WDR5 (Homo sapiens, UniProt P61964); assay: Time Resolved-Fluorescence Energy Transfer (TR-FRET) competition assay, displacement of 10mer-Thr-FAM probe from His-tagged WDR5; assay type: binding; conditions: WDR5-His tag 2 nM, 10mer-Thr-FAM 150 nM, 60 minutes at room temperature
T1 construct: WDR5-His Tag (A23, residues 24-334) is expressed and purified in our lab; made in house
Excerpt: Excess 10mer-Thr-FAM probe was utilized with His-tagged WDR5 in conjunction with a commercial anti-His antibody containing a Terbium label. The LanthaScreen™ Elite Tb-anti-HIS Antibody from ThermoFisher Scientific was used for this purpose. This Tb-anti-HIS has an excitation/emission of 340 nm and 490 nm, respectively. The 10mer-Thr-FAM probe when bound to WDR5 will undergo a FRET interaction with the Tb-anti-HIS and emit at 520 nm. […] WDR5-His Tag (A23, residues 24-334) is expressed and purified in our lab in sufficient quantities for screening. 10mer-Thr-FAM peptide is used at 150 nM. WDR5-His tag protein is used at 2 nM. A source plate is prepared using an Echo Liquid Handler, which distributes the compounds to the assay plate (white, flat-bottom; OptiPlate) in a 10-point, 5-fold dilution schemes with a top concentration of 5 μM, in a final volume of 20 μL. A final target (WDR5)/Tb-Ab concentration of 2 nM/1 nM is dispensed from appropriate stock solutions, respectively. The final DMSO concentration in each well of the assay plate is 1% or lower. The plate is covered, shielded from light, and incubated for 60 minutes at room temperature with rocking. 10mer-Thr-FAM and Anti-His terbium antibody fluorescence is then measured on a Biotek Cytation 3 at excitation wavelength of 340 nm, and emission wavelengths of 495 nm and 520 nm. Working buffer conditions contain 1× Phosphate Buffered Saline, 300 mM NaCl, 0.5 mM TCEP, 0.1% CHAPS, at pH 7.2. TR-FRET signal is plotted and IC50 and Ki values are calculated according to the formula of Wang Z. FEBS Lett (1996) 3, 245.
where […] is the concentration of the free inhibitor at 50% inhibition, [L]50 is the concentration of the free labeled ligand at 50% inhibition, [P]0 is the concentration of the free protein at 0% inhibition, Kd represents the dissociation constant of the FITC-MLL or 10mer-Thr-FAM probe for WDR5. Total fluorescence is also measured, to rule out compounds that are inherently fluorescent or able to act as quenchers in the assay. TR-FRET binding assay

[1] = tested on: MV4:11 human cancer cell lines; assay: Cellular viability / anti-proliferative activity, CellTiter-Glo, 5 day protocol; assay type: cell-based; conditions: 5 day incubation
Experimental: Anti-proliferative activity using MLL-harboring cell lines. MV-4-11 and K562 cells are grown in IMDM media supplemented with 10% FBS and 1% penicillin/streptomycin, Molm-13 cells are cultured in RPMI-1640 media supplemented with 10% FBS and 1% penicillin/streptomycin. Viability assays are performed by dispensing 200 cells at 7200 cells/mL into each well of an opaque 384-well plate and adding compounds at the indicated concentrations in a final volume of 32 μL and a final concentration of DMSO of 0.3% for all samples. A certain range of compound concentrations is made through a series of 2-fold dilutions starting 30 μM at the highest, total 22 dilutions. After a set incubation period, 5 day protocol, the viability of cells in each well is assessed using the CellTiter-Glo assay (Promega), read on a 96 Microplane Luminometer (Cytation 3, BioTek). Serial dilutions of each cell type are performed in all assays to generate standard curves and the final densities of cells are determined within the dynamic range of the instrument. GI50 values are calculated based on XLfit software (IDBS, Guildford, UK) with Sigmoidal Dose-Response Model. Each compound is tested in minimum of two replicates. Data are expressed as mean.

[2] = read-out: Ki for additional WDR5 inhibitor compounds for Inhibition of WDR5 by TR-FRET assay
[3] = Homo sapiens, MV4-11, 120 h, MV4;11 cells, read-out: GI50 for additional WDR5 inhibitor compounds on cellular proliferation of MV4;11 human cancer cell lines
[4] = Homo sapiens, 120 h, MV4;11 cells, read-out: GI50 for additional WDR5 inhibitor compounds on cellular proliferation of MV4;11 human cancer cell lines
[5] = read-out: Ki for Exemplified Compounds for Inhibition of WDR5 by TR-FRET assay
[6] = Homo sapiens, MV4-11, 120 h, MV4:11 cells, read-out: GI50 for representative compounds on cellular proliferation of MV4:11 human cancer cell lines

Row | SMILES | Ki (WDR5; [2]) | GI50 [1, 3] | Ki (WDR5; [5]) | GI50 [1, 6] | further results
1 | COc1cc(N(C)C)c2nccc(N3CCc4c(cc(Cn5ccnc5)cc4-c4cn(C)nc4C(F)(F)F)C3=O)c2c1 [Compound B-35] | < 0.02 nM | 76 nM |  |  | 
2 | CCc1cc(C2CCOCC2)c2nccc(N3CCc4c(cc(Cn5ccnc5)cc4-c4cn(C)nc4C(F)(F)F)C3=O)c2c1 [Compound B-36] | < 0.02 nM | 23 nM |  |  | 
3 | CNC(=O)c1cc(OC)cc2c(N3CCc4c(cc(Cn5ccnc5)cc4-c4cn(C)nc4C(F)(F)F)C3=O)ccnc12 [Compound B-42] |  | < 20 nM |  |  | 
4 | CCc1cc(N2CCN(C3COC3)C(=O)C2)c2nc(C)cc(N3CCc4c(cc(Cn5ccnc5)cc4-c4cn(C)nc4C(F)(F)F)C3=O)c2c1 [Compound B-132] | 0.03 nM | < 20 nM |  |  | 
5 | CCc1cc(C2CCOCC2)c2nc(C)cc(N3CCc4c(cc(Cn5ccnc5)cc4-c4cn(C)nc4C(F)(F)F)C3=O)c2c1 [Compound B-165] | 0.042 nM | 129 nM |  |  | 
6 | CCc1cc(C(=O)NCCN(C)C)c2nccc(N3CCc4c(cc(Cn5ccnc5)cc4-c4cn(C)nc4C(F)(F)F)C3=O)c2c1 [Compound B-166] | 0.029 nM |  |  |  | GI50 [1, 4]: < 20 nM
7 | COc1cc(N2C[C@H]3CN(C)C[C@H]3C2)c2nc(C)cc(N3CCc4c(cc(Cn5ccnc5)cc4-c4cn(C)nc4C(F)(F)F)C3=O)c2c1 [Compound B-197] | 0.02 nM | < 20 nM |  |  | 
8 | COc1cc(C(=O)Nc2cn[nH]c2)c2nc(C)cc(N3CCc4c(cc(Cn5ccnc5)cc4-c4cn(C)nc4C(F)(F)F)C3=O)c2c1 [Compound B-201] | 0.023 nM | 23 nM |  |  | 
9 | COc1cc(C(=O)NC2CN(C(=O)C3CCOCC3)C2)c2nccc(N3CCc4c(cc(Cn5ccnc5)cc4-c4cn(C)nc4C(F)(F)F)C3=O)c2c1 [Compound B-229] | < 0.02 nM | 26 nM |  |  | 
10 | CCc1cc(N)c2nccc(N3CCc4c(cc(Cn5ccnc5)cc4-c4cn(C)nc4C(F)(F)F)C3=O)c2c1 [Compound B-230] |  |  |  |  | GI50 [1, 4]: 54 nM
11 | CCc1cc(NC(C)=O)c2nccc(N3CCc4c(cc(Cn5ccnc5)cc4-c4cn(C)nc4C(F)(F)F)C3=O)c2c1 [Compound B-231] |  | < 20 nM |  |  | 
12 | CCc1cc(NC(=O)CC2CN(C(=O)C3CCOCC3)C2)c2nccc(N3CCc4c(cc(Cn5ccnc5)cc4-c4cn(C)nc4C(F)(F)F)C3=O)c2c1 [Compound B-233] | < 0.02 nM | 26 nM |  |  | 
13 | CCc1cc(C(=O)NC2CN(C(=O)c3ccncc3)C2)c2nccc(N3CCc4c(cc(Cn5ccnc5)cc4-c4cn(C)nc4C(F)(F)F)C3=O)c2c1 [Compound B-242] | < 0.02 nM |  |  |  | GI50 ([1]; MV4;11 cells, read-out: GI50 for additional WDR5 inhibitor compounds on cellular proliferation of MV4;11 human cancer cell lines): 29 nM
14 | COc1cnc2cc(C)cc(N3CCc4c(cc(Cn5ccnc5C)cc4-c4cn(C)nc4C(F)(F)F)C3=O)c2c1 [Example 2, 2-(3-Methoxy-7-methylquinolin-5-yl)-7-((2-methyl-1H-imidazol-1-yl)methyl)-5-(1-methyl-3-(trifluoromethyl)-1H-pyrazol-4-yl)-3,4-dihydroisoquinolin-1(2H)-one] |  |  | < 0.02 nM | < 20 nM | 
15 | CCc1cc(C(=O)NC)c2nccc(N3CCc4c(cc(Cn5ccnc5C)cc4-c4cn(C)nc4C(F)(F)F)C3=O)c2c1 [Example 5, 6-Ethyl-N-methyl-4-(7-((2-methyl-1H-imidazol-1-yl)methyl)-5-(1-methyl-3-(trifluoromethyl)-1H-pyrazol-4-yl)-1-oxo-3,4-dihydroisoquinolin-2(1H)-yl)quinoline-8-carboxamide] |  |  | < 0.02 nM | < 20 nM | 
16 | CCc1cc(C(N)=O)c2nccc(N3CCc4c(cc(Cn5ccnc5C)cc4-c4cn(C)nc4C(F)(F)F)C3=O)c2c1 [Example 6, 6-Ethyl-4-(7-((2-methyl-11H-imidazol-1-yl)methyl)-5-(1-methyl-3-(trifluoromethyl)-1H-pyrazol-4-yl)-1-oxo-3,4-dihydroisoquinolin-2(1H)-yl)quinoline-8-carboxamide] |  |  | < 0.02 nM | < 20 nM | 
17 | CCc1cc2c(N3CCc4c(cc(Cn5ccnc5)cc4-c4cn(C)nc4C(F)(F)F)C3=O)ccnc2c(=O)[nH]1 [Example 7, 4-(7-((1H-Imidazol-1-yl)methyl)-5-(1-methyl-3-(trifluoromethyl)-1H-pyrazol-4-yl)-1-oxo-3,4-dihydroisoquinolin-2(1H)-yl)-6-ethyl-1,7-naphthyridin-8(7H)-one and 7-((1H-imidazol-1-yl)methyl)-2-(6-ethyl-8-hydroxy-1,7-naphthyridin-4-yl)-5-(1-methyl-3-(trifluoromethyl)-1H-pyrazol-4-yl)-3,4-dihydroisoquinolin-1(2H)-one mixture] |  |  | < 0.02 nM | 1990 nM | 
18 | CCc1cc2c(N3CCc4c(cc(Cn5ccnc5)cc4-c4cn(C)nc4C(F)(F)F)C3=O)ccnc2c(NC)n1 [Example 9, 7-((1H-Imidazol-1-yl)methyl)-2-(6-ethyl-8-(methylamino)-1,7-naphthyridin-4-yl)-5-(1-methyl-3-(trifluoromethyl)-1H-pyrazol-4-yl)-3,4-dihydroisoquinolin-1(2H)-one] |  |  | < 0.02 nM | 102 nM | 
19 | CCc1cc2c(N3CCc4c(cc(Cn5ccnc5C)cc4-c4cn(C)nc4C(F)(F)F)C3=O)ccnc2c(OC)n1 [Example 10, 2-(6-Ethyl-8-methoxy-1,7-naphthyridin-4-yl)-7-((2-methyl-1H-imidazol-1-yl)methyl)-5-(1-methyl-3-(trifluoromethyl)-1H-pyrazol-4-yl)-3,4-dihydroisoquinolin-1(2H)-one] |  |  | < 0.02 nM | < 20 nM | 
20 | CCc1cnc2c(c1)[C@@H](N1CCc3c(cc(Cn4ccnc4)cc3-c3cn(C)nc3C(F)(F)F)C1=O)CCO2 [Example 11, (S)-7-((1H-Imidazol-1-yl)methyl)-2-(6-ethyl-3,4-dihydro-2H-pyrano[2,3-b]pyridin-4-yl)-5-(1-methyl-3-(trifluoromethyl)-1H-pyrazol-4-yl)-3,4-dihydroisoquinolin-1(2H)-one] |  |  | < 0.02 nM | < 20 nM | 
21 | COc1cc2c(N3CCc4c(cc(Cn5ccnc5)cc4-c4cn(C)nc4C(F)(F)F)C3=O)ccnc2c(OC)n1 [Example 12, 7-((1H-Imidazol-1-yl)methyl)-2-(6,8-dimethoxy-1,7-naphthyridin-4-yl)-5-(1-methyl-3-(trifluoromethyl)-1H-pyrazol-4-yl)-3,4-dihydroisoquinolin-1(2H)-one] |  |  | < 0.02 nM | 42 nM | 
22 | CCc1cc(OC)c2nncc(N3CCc4c(cc(Cn5ccnc5)cc4-c4cn(C)nc4C(F)(F)F)C3=O)c2c1 [Example 13, 7-((1H-Imidazol-1-yl)methyl)-2-(6-ethyl-8-methoxycinnolin-4-yl)-5-(1-methyl-3-(trifluoromethyl)-1H-pyrazol-4-yl)-3,4-dihydroisoquinolin-1(2H)-one] |  |  | < 0.02 nM | < 20 nM | 
23 | CCc1cc(OC)c2nncc(N3CCc4c(cc(Cn5ccnc5C)cc4-c4cn(C)nc4C(F)(F)F)C3=O)c2c1 [Example 14, 2-(6-Ethyl-8-methoxycinnolin-4-yl)-7-((2-methyl-1H-imidazol-1-yl)methyl)-5-(1-methyl-3-(trifluoromethyl)-1H-pyrazol-4-yl)-3,4-dihydroisoquinolin-1(2H)-one] |  |  | < 0.02 nM | < 20 nM | 
